Tests used:
Rattus norvegicus [1] = organism: Rattus norvegicus; assay: Relative potency with reference to quinidine; format: functional
Rattus norvegicus [2] = assay: Effective dose against aconitine-induced arrhythmia after intravenal administration in anesthetized rats; format: functional
[3] = Acute toxicity determined after intravenal administration in mice; format: organism-based; conditions: mouse, in vivo, iv
Rattus norvegicus [4] = assay: Tested for incidence of arrhythmias in rats after a intravenal administration of 1 mg/kg expressed as no. of positive cases out of no. of tested cases (10); format: functional
Rattus norvegicus [5] = assay: Incidence of arrhythmias in rats after a intravenal administration at 4 mg/kg, expressed as no. of positive cases out of no. of tested cases (10); format: functional
Cavia porcellus [6] = assay: Amount of ouabain needed for production of ventricular extra-systoles at a dose of 2 mg/kg (iv given 5 min prior) in guinea pig; format: functional, Cardiac ventricle
Cavia porcellus [7] = assay: Amount of ouabain needed for production of ventricular fibrillation at a dose of 2 mg/kg (iv given 5 min prior) in guinea pig; format: functional, Cardiac ventricle
Cavia porcellus [8] = assay: Amount of ouabain needed for production of ventricular arrhythmias that causes death in guinea pig by cardiac arrest at a dose of 2 mg/kg iv given 5 min prior; format: functional, Cardiac ventricle
[9] = Acute toxicity in secondary evaluation when administered intravenously (iv) against aconitine-induced arrhythmias in anesthetized rats..parenthesis indicates 95%CL; format: organism-based; conditions: rat, in vivo
Rattus norvegicus [10] = assay: Tested for incidence of arrhythmias in rats after a intravenal administration of 2 mg/kg expressed as no. of positive cases out of no. of tested cases (10); format: functional
Cavia porcellus [11] = assay: Amount of ouabain needed for production of ventricular extra-systoles at a dose of 1 mg/kg (iv given 5 min prior) in guinea pig; format: functional, Cardiac ventricle
Cavia porcellus [12] = assay: Amount of ouabain needed for production of ventricular arrhythmias that causes death in guinea pig by cardiac arrest at a dose of 1 mg/kg iv given 5 min prior; format: functional, Cardiac ventricle
Cavia porcellus [13] = assay: Amount of ouabain needed for production of ventricular fibrillation at a dose of 1 mg/kg (iv given 5 min prior) in guinea pig; format: functional, Cardiac ventricle

CC1(C)CC(C(=O)NCCCNCc2ccccc2OCc2ccccc2)C(C)(C)N1 (stereo not given)
Relative potency (Rattus norvegicus [1]): 22.9
ED150 (Rattus norvegicus [2]): 0.52 mg/kg
LD50 [3]: 13 mg/kg
No. of positive cases (Rattus norvegicus [4]): 10

CC1(C)C=C(C(=O)NCC(O)CNC(=O)c2cccs2)C(C)(C)N1 (stereo not given)
No. of positive cases (Rattus norvegicus [5]): 7
Relative potency (Rattus norvegicus [1]): 1.77
ED150 (Rattus norvegicus [2]): 6.7 mg/kg
LD50 [3]: 65 mg/kg

Cc1cccc(C)c1NC(=O)C(C)NC(=O)C1=CC(C)(C)NC1(C)C (stereo not given)
Average dose (Cavia porcellus [6]): 0.2089 mg/kg
No. of positive cases (Rattus norvegicus [5]): 10
Relative potency (Rattus norvegicus [1]): 6.3
Average dose (Cavia porcellus [7]): 0.3253 mg/kg
Average dose (Cavia porcellus [8]): 0.361 mg/kg
ED150 (Rattus norvegicus [2]): 1.9 mg/kg
LD50 [3]: 15 mg/kg

CC1(C)C=C(C(=O)NCCCNCc2ccccc2O)C(C)(C)N1
No. of positive cases (Rattus norvegicus [5]): 7
Relative potency (Rattus norvegicus [1]): 2.5
ED150 (Rattus norvegicus [2]): 4.7 mg/kg
LD50 [3]: 28 mg/kg

Cc1cccc(C)c1NC(=O)C(C)NCCCNC(=O)C1CC(C)(C)NC1(C)C (stereo not given)
No. of positive cases (Rattus norvegicus [5]): 10
Relative potency (Rattus norvegicus [1]): 5.1
ED150 (Rattus norvegicus [2]): 2.3 mg/kg
LD50 [3]: 39 mg/kg

C=CCc1ccc(OC(C)C(=O)NCCCNC(=O)C2=CC(C)(C)NC2(C)C)c(OC)c1 (stereo not given)
Relative potency (Rattus norvegicus [1]): 14.9
ED150 (Rattus norvegicus [2]): 0.8 mg/kg
LD50 [3]: 7.6 mg/kg
No. of positive cases (Rattus norvegicus [4]): 10

COc1cccc(CNCCCNC(=O)C2=CC(C)(C)NC2(C)C)c1OCc1ccccc1
No. of positive cases (Rattus norvegicus [5]): 10
Relative potency (Rattus norvegicus [1]): 56.7
ED150 (Rattus norvegicus [2]): 0.21 mg/kg
LD50 [3]: 6.2 mg/kg

Cc1cccc(C)c1NC(=O)CNC(=O)C1=CC(C)(C)NC1(C)C
Average dose (Cavia porcellus [6]): 0.2142 mg/kg
No. of positive cases (Rattus norvegicus [5]): 10
Relative potency (Rattus norvegicus [1]): 4.9
Average dose (Cavia porcellus [7]): 0.2842 mg/kg
Average dose (Cavia porcellus [8]): 0.3314 mg/kg
ED150 (Rattus norvegicus [2]): 2.4 mg/kg
LD50 [3]: 53 mg/kg

Cc1cccc(C)c1OCC(C)NC(=O)C1=CC(C)(C)N([O])C1(C)C (stereo not given)
No. of positive cases (Rattus norvegicus [5]): 0
LD50 [9]: 54 mg/kg

C=CCOc1ccc(CNCCCNC(=O)C2=CC(C)(C)NC2(C)C)cc1
No. of positive cases (Rattus norvegicus [5]): 6
Relative potency (Rattus norvegicus [1]): 4.1
ED150 (Rattus norvegicus [2]): 2.9 mg/kg
LD50 [3]: 28 mg/kg

CC1(C)C=C(C(=O)NCCCNCc2ccccc2OCc2ccccc2)C(C)(C)N1
Relative potency (Rattus norvegicus [1]): 19.8
No. of positive cases (Rattus norvegicus [10]): 10
ED150 (Rattus norvegicus [2]): 0.6 mg/kg
LD50 [3]: 9 mg/kg

COc1cccc(CNCCCNC(=O)C2=CC(C)(C)NC2(C)C)c1O
No. of positive cases (Rattus norvegicus [5]): 10
Relative potency (Rattus norvegicus [1]): 3.5
ED150 (Rattus norvegicus [2]): 3.4 mg/kg
LD50 [3]: 26 mg/kg

CC1(C)C=C(C(=O)NCCCN2C(=O)c3ccccc3C2=O)C(C)(C)N1
Average dose (Cavia porcellus [6]): 0.2369 mg/kg
Relative potency (Rattus norvegicus [1]): 4.6
Average dose (Cavia porcellus [7]): 0.3455 mg/kg
Average dose (Cavia porcellus [8]): 0.3825 mg/kg
No. of positive cases (Rattus norvegicus [10]): 10

CC1(C)C=C(C(=O)NCCNCc2ccccc2O)C(C)(C)N1
No. of positive cases (Rattus norvegicus [5]): 10
Relative potency (Rattus norvegicus [1]): 11.9
ED150 (Rattus norvegicus [2]): 1 mg/kg
LD50 [3]: 30 mg/kg

C=CCOc1ccc(CNCCCNC(=O)C2=CC(C)(C)NC2(C)C)cc1OC
No. of positive cases (Rattus norvegicus [5]): 10
Relative potency (Rattus norvegicus [1]): 5.4
ED150 (Rattus norvegicus [2]): 2.2 mg/kg
LD50 [3]: 21 mg/kg

Cc1cccc(C)c1NC(=O)C(NC(=O)C1=CC(C)(C)NC1(C)C)c1ccccc1 (stereo not given)
Relative potency (Rattus norvegicus [1]): 15.3
No. of positive cases (Rattus norvegicus [10]): 10
ED150 (Rattus norvegicus [2]): 0.78 mg/kg
LD50 [3]: 7.6 mg/kg

CC1(C)C=C(C(=O)NCCCNCc2cccs2)C(C)(C)N1
No. of positive cases (Rattus norvegicus [5]): 7
Relative potency (Rattus norvegicus [1]): 2.2
ED150 (Rattus norvegicus [2]): 5.3 mg/kg
LD50 [3]: 65 mg/kg

CC1(C)C=C(C(=O)NCCCNCc2cccc(Oc3ccccc3)c2)C(C)(C)N1
Relative potency (Rattus norvegicus [1]): 12.4
No. of positive cases (Rattus norvegicus [10]): 10
ED150 (Rattus norvegicus [2]): 0.96 mg/kg
LD50 [3]: 11 mg/kg

C=CCc1cc(C)ccc1OCC(=O)NCCNC(=O)C1=CC(C)(C)NC1(C)C
No. of positive cases (Rattus norvegicus [10]): 3
LD50 [3]: 19 mg/kg

C=CCOc1ccccc1CNCCCNC(=O)C1=CC(C)(C)NC1(C)C
Average dose (Cavia porcellus [11]): 0.2243 mg/kg
Average dose (Cavia porcellus [12]): 0.3061 mg/kg
Relative potency (Rattus norvegicus [1]): 6.3
No. of positive cases (Rattus norvegicus [10]): 10
Average dose (Cavia porcellus [13]): 0.2802 mg/kg
ED150 (Rattus norvegicus [2]): 1.9 mg/kg
LD50 [3]: 18 mg/kg

CC1(C)C=C(C(=O)NCCCNC(=O)COc2ccccc2)C(C)(C)N1
No. of positive cases (Rattus norvegicus [5]): 10
Relative potency (Rattus norvegicus [1]): 4.6
ED150 (Rattus norvegicus [2]): 2.6 mg/kg
LD50 [3]: 49 mg/kg

C/C=C/c1ccc(OCC(=O)NCCCNC(=O)C2=CC(C)(C)NC2(C)C)c(OC)c1
Average dose (Cavia porcellus [6]): 0.2011 mg/kg
No. of positive cases (Rattus norvegicus [5]): 7
Relative potency (Rattus norvegicus [1]): 5.4
Average dose (Cavia porcellus [7]): 0.2509 mg/kg
Average dose (Cavia porcellus [8]): 0.2847 mg/kg
LD50 [3]: 30 mg/kg

CC1(C)C=C(C(=O)NCCCNCc2cccc(O)c2)C(C)(C)N1.Cl
No. of positive cases (Rattus norvegicus [5]): 4
Relative potency (Rattus norvegicus [1]): 1.4
ED150 (Rattus norvegicus [2]): 8.5 mg/kg
LD50 [3]: 13 mg/kg
